The text below walks through data of patent US20250289848A1, “PEPTIDOMIMETIC INHIBITORS OF B-CATENIN/TCF PROTEIN-PROTEIN INTERACTION” (H. LEE MOFFITT CANCER CENTER AND RESEARCH INSTITUTE, INC., priority 2018, published 2025).

Entries after “also recorded” stand apart in the source; their conditions may differ.

One experiment has as its system BT-20 cells. Nature of the experiment: MTS cell viability assay, BT-20. The following applies: Homo sapiens, BT-20, 72 h; read-out: MTs IC50 ± SD BT-20. It is filed as cell-based.
The next experiment concerns SW480 cells. Nature of the experiment: MTS cell viability assay, SW480. It is filed as cell-based. The following applies: Homo sapiens, SW480, 72 h; read-out: MTs IC50 ± SD SW480.
The test system of experiment [1] is TOPFlash luciferase reporter in β-catenin activated HEK293 cells. Nature of the experiment: TOPFlash luciferase reporter assay. In kind it is cell-based. The following applies: 24 h treatment, wild-type Tcf4 binding sites. As for the experimental part: (§1) FuGENE 6 (E2962, Promega) in a 96-well plate format was used for the transfection of HEK293 cells according to the manufacturer's instructions. HEK293 cells were co-transfected with 45 ng of the TOPFlash or FOPFlash reporter gene, 135 ng of pcDNA3.1-p-catenin and 20 ng of pCMV-RL normalization reporter gene. Cells were cultured in DMEM and 10% fatal bovine serum at 37° C. for 24 h, and different concentrations of inhibitors were then added. After 24 h, the luciferase reporter activity was measured using the Dual-Glo system (E2940, Promega). Normalized luciferase activity in response to the treatment with the inhibitors was compared with that obtained from the cells treated with DMSO. Experiments were performed in triplicate.

The test system of another experiment is MDA-MB-468 cells. Nature of the experiment: MTS cell viability assay, MDA-MB-468. In kind it is cell-based. The following applies: Homo sapiens, MDA-MB-468, 72 h, read-out: MTs IC50 ± SD MDA-MB-468.
For a further experiment, the system named is HCT116 cells. Nature of the experiment: MTS cell viability assay, HCT116. The following applies: Homo sapiens, HCT-116, 72 h; read-out: MTs IC50 ± SD HCT116. In kind it is cell-based.
Experiment [2] has as its system MDA-MB-231 cells. Nature of the experiment: MTS cell viability assay, MDA-MB-231. It is filed as cell-based. The following applies: Homo sapiens, MDA-MB-231, 72 h; read-out: MTs IC50 ± SD MDA-MB-231.
The test system of experiment [3] is FOPFlash luciferase reporter in β-catenin activated HEK293 cells. Nature of the experiment: FOPFlash luciferase reporter assay. In kind it is cell-based. The following applies: 24 h treatment, mutant Tcf4 binding sites. As for the experimental part:
as §1

The subject of another experiment is A549 cells. Nature of the experiment: MTS cell viability assay, A549. In kind it is cell-based. The following applies: Homo sapiens, A549, 72 h; read-out: MTs IC50 ± SD A549.
In another experiment the test system is β-catenin/APC PPI. Nature of the experiment: Co-IP experiment, HCT116 cells, β-catenin/APC. To be noted: 24 h, concentrations sufficient to disrupt β-catenin/Tcf PPI.
The subject of experiment [4] is Wnt/β-catenin hyperactive cancer cells. Nature of the experiment: MTS cell viability assay, summary over cell lines. In kind it is cell-based. To be noted: result in words.
The next experiment deals with β-catenin/E-cadherin PPI. Nature of the experiment: Co-IP experiment, HCT116 cells, β-catenin/E-cadherin. The following applies: 24 h, concentrations sufficient to disrupt β-catenin/Tcf PPI.
The subject of experiment [5] is MDA-MB-231 cells. Nature of the experiment: Scratch wound healing assay. In kind it is cell-based, human. To be noted: 10 μM; 10% serum; mitomycin; 14 h. As for the experimental part:
Scratch wound healing assay. To the confluent monolayer of MDA-MB-231 cells in 24-well plates, wounds will be made by scraping a sterile 200 μL pipette tip. Cells were maintained in DMEM containing 10% FBS with 10 μg/mL mitomycin to inhibit cell proliferation. Images of wounds were taken immediately and 14 h after wounding.
(§2) Scratch wound healing and Matrigel invasion assays using TNBC MDA-MB-231 cells were conducted.

For experiment [6], the system named is MDA-MB-231 cells. Nature of the experiment: Matrigel invasion assay. In kind it is cell-based, human. To be noted: 10 μM; 24 h. As for the experimental part: Matrigel invasion assay. MDA-MB-231 cells (5×10^4) suspended in 200 p L starvation medium were added to the upper chamber of a Matrigel coated insert (6.5 mm diameter, […]; Corning 353097), and the insert was placed in a 24-well plate containing […] DMEM medium with 10% FBS. Inhibitors were added to both upper and the lower chambers. Invasion assays were performed for 24 h and cells were fixed with 3.7% formaldehyde. Cells were stained with crystal violet staining solution. The cells on the upper side of the insert were removed with a cotton swab. Five randomly selected fields (×10 objectives) on the lower side of the insert were photographed, and the invaded cells were counted.
as §2

A further experiment concerns β-catenin/Tcf PPI. It is filed as cell-based. To be noted: HCT116 cells, 24 h treatment.

Consider `NC(=O)CC[C@H](NC(=O)[C@H](Cc1nn[nH]n1)NC(=O)[C@H](Cc1ccc2ccccc2c1)NC(=O)c1cc2cc(Cl)ccc2[nH]1)C(=O)Nc1ccc(OC(F)(F)F)cc1` [Compound 55, (S)-2-((S)-2-((S)-2-(5-Chloro-1H-indole-2-carboxamido)-3-(naphthalen-2-yl)propanamido)-3-(2H-tetrazol-5-yl)propanamido)-N^1-(4-(trifluoromethoxy)phenyl)pentanediamide], for which the concentration for half-maximal inhibition (IC50) in the experiment with BT-20 cells is 38.4 ± 3.99 µM; in the experiment on SW480 cells, 28.2 ± 4.63 µM; in the experiment on MDA-MB-468 cells, 29.2 ± 4.02 µM; in the experiment with HCT116 cells it was 63.9 ± 7.48 µM; with MDA-MB-231 cells [2], 34.3 ± 6.42 µM; in the experiment with A549 cells it was 60.3 ± 10.5 µM. For the same compound, the “TOPFlash luciferase activity (transactivation of Wnt/β-catenin signaling)” value in experiment [1] is recorded as “inhibited”. Besides, the “FOPFlash luciferase reporter activity” value in experiment [3] is “did not inhibit”.

`CCOC(=O)CC[C@H](NC(=O)[C@H](Cc1nn[nH]n1)NC(=O)[C@H](Cc1ccc2ccccc2c1)NC(=O)c1cc2cc(Cl)ccc2[nH]1)C(=O)Nc1ccc(OC(F)(F)F)cc1` [Compound 56, Ethyl (S)-4-((S)-2-((S)-2-(5-chloro-1H-indole-2-carboxamido)-3-(naphthalen-2-yl)propanamido)-3-(2H-tetrazol-5-yl)propanamido)-5-oxo-5-((4-(trifluoromethoxy)phenyl)amino)pentanoate]: the IC50 with BT-20 cells was 16.5 ± 2.23 µM; with SW480 cells, 14.1 ± 2.86 µM; with MDA-MB-468 cells, 7.25 ± 0.72 µM; in the experiment with HCT116 cells, 69.4 ± 7.21 µM; in the experiment on MDA-MB-231 cells [2], 12.3 ± 2.16 µM; with A549 cells, 86.4 ± 8.58 µM. Also, the “effect on the β-catenin/APC PPI (co-IP)” value with β-catenin/APC PPI is given as “without affecting; also recorded: had no effect”. Moreover, the “TOPFlash luciferase activity (transactivation of Wnt/β-catenin signaling)” value in [1] was “suppressed transactivation of Wnt/β-catenin signaling in dose-dependent manners; also recorded: inhibited”. Besides, the “viability of Wnt/β-catenin hyperactive cancer cells” value in [4] is recorded as “selectively inhibited”. The “effect on the β-catenin/E-cadherin PPI (co-IP)” value in the experiment with β-catenin/E-cadherin PPI was “without affecting; also recorded: had no effect”. For the same compound, in [3], the “FOPFlash luciferase reporter activity” value is listed as “did not inhibit”. Further, the “migration of TNBC MDA-MB-231 cells (wound healing)” value in the experiment on MDA-MB-231 cells [5] is on record as “selectively inhibited; also recorded: inhibited the migration; also recorded: effectively inhibit”. For the same compound, in the experiment with MDA-MB-231 cells [6], the “invasion of TNBC MDA-MB-231 cells (Matrigel)” value is listed as “selectively inhibited; also recorded: inhibited invasion; also recorded: effectively inhibit”. In the experiment with β-catenin/Tcf PPI, the “disruption of the β-catenin/Tcf PPI (co-IP)” value is “disrupted the β-catenin/Tcf PPI; also recorded: dose-dependently inhibited”.
